Measurements published in patent US11179450B2, “Long chain antigen containing interepitope sequence that promotes antigen presentation to T cells” (MIE UNIVERSITY, priority 2013, dated 2021).

Key:
[1] = tested on: CD8+ T cells specific to MA p265, NY p81 and mERK2 9m; test: Specific CD8+ T cell induction by CHP/long chain peptide vaccines in mice, intracellular cytokine staining of spleen cells; format: in vivo, BALB/c mice
From the text: Long chain peptide antigens MEN, all containing three types of mouse CD8+ T cell epitope sequences (MA p265 (Sequence No. 27), NY p81 (Sequence No. 29), and mERK2 9m (Sequence No. 28)), were synthesized. The interepitope sequences between the respective epitopes were respectively six consecutive tyrosines (Y6) (Sequence No. 1), six consecutive glycines (G6) (Sequence No. 2), six consecutive prolines (P6) (Sequence No. 3), or six consecutive threonines (T6) (Sequence No. 4). Each long chain peptide antigen was complexed with cholesterol-modified pullulan (CHP), which is a type of delivery system, and administered as a vaccine to a mouse. In the process of administration, CpG oligo DNA was coadministered as an adjuvant. Spleen cells were collected one week after the final administration and the frequencies of CD8+ T cells specific to the respective epitope sequences were measured by an intracellular cytokine staining method.
Long chain peptide antigens NME, all containing three types of mouse CD8+ T cell epitope sequences (MA p265 (Sequence No. 27), NY p81 (Sequence No. 29), and mERK2 9m (Sequence No. 28)), were synthesized. The antigens differ from the MEN sequences shown in FIG. 1 in the order of the three types of epitopes. The interepitope sequences between the respective epitopes were respectively six consecutive tyrosines (Y6) (Sequence No. 5), six consecutive glycines (G6) (Sequence No. 6), or six consecutive prolines (P6) (Sequence No. 7). Vaccines containing the respective long chain peptide antigens were administered to mice in the same manner as in FIG. 1 and the frequencies of CD8+ T cells specific to the respective epitope sequences were measured by the intracellular cytokine staining method.
Long chain peptide antigens MEN, ENM, and NME, all containing three types of mouse CD8+ T cell epitope sequences (MA p265 (Sequence No. 27), NY p81 (Sequence No. 29), and mERK2 9m (Sequence No. 28)), were synthesized. MEN, ENM, and […] in the order of the three types of epitopes. The interepitope sequences between the respective epitopes were each six consecutive tyrosines (Y6) (Sequence Nos. 1, 5 and 8). Vaccines containing the respective long chain peptide antigens were administered to mice in the same manner as in FIG. 1 and the frequencies of CD8+ T cells specific to the respective epitope sequences were measured by the intracellular cytokine staining method.
Each long chain peptide was dissolved in dimethyl sulfoxide (DMSO) at a concentration of 10 mg/mL. CHP was dissolved in 6 M urea-containing phosphate buffered saline (PBS) at a concentration of 10 mg/mL 1 mL (10 mg) of the long chain peptide solution and 20 mL (200 mg) of the CHP solution were mixed and left to stand at room temperature overnight in a dark place. The liquid mixture was transferred into a dialysis membrane (molecular weight cutoff: 3,500; Thermo Fisher Scientific, Inc.) and dialyzed for 2 hours to overnight at 4° C. against 0.6 M urea-containing PBS of a volume ratio of not less than 100 times as the dialysis outer solution. Dialysis was then performed for 2 hours to overnight at 4° C. against 0.06 M urea-containing PBS of a volume ratio of not less than 100 times as the dialysis outer solution. Dialysis was performed again for 2 hours to overnight at 4° C. against PBS of a volume ratio of not less than 100 times as the dialysis outer solution. The dialyzed inner solution was collected, filtered through a filtration sterilization filter of 0.45 μm or 0.22 μm pore size, and thereafter the UV absorption at 280 nm was measured to determine the final concentration of the long chain peptide from its molecular extinction coefficient.
Each CHP/long chain peptide complex as the vaccine and the CpG oligo DNA as the adjuvant were administered at the same time to a mouse. Administration was performed by subcutaneous injection on the back of the mouse. […]

[2] = tested on: NY p157 specific CD8+ T cell clone 1G4 cells; test: Antigen presentation by LCL given CHP/long chain peptide vaccine, IFN-γ ELISPOT; format: cell-based, human; conditions: FIG. 10; NMW peptide complexed with CHP given to LCL as antigen-presenting cells
From the text: Long chain peptide antigens NMW, all containing three types of human CD8+ T cell epitope sequences (NY p157:HLA-A0201 restrictive, MA4 p143:HLA-A2402 restrictive, and WT1: HLA-A2402 restrictive p235), were synthesized. The interepitode sequences between the respective epitopes were the six consecutive amino acids shown in FIG. 10, namely Sequence Nos. 18-26. Each long chain peptide antigen was complexed with cholesterol-modified pullulan (CHP), which is a type of delivery system, and administered in vitro as a vaccine to an immortalized human B cell line (LCL). Using these human B cells as the antigen-presenting cells, they were co-cultured with CD8+ T cell clone 1G4 cells specific to NY p157 and the activation of the 1G4 cells due to antigen presentation was measured by an IFN-γ ELISPOT method. As a positive control, LCL administered with an NY p157 short chain peptide was used as the antigen-presenting cells, and as a negative control, LCL without antigen added was used as the antigen-presenting cells.
Cryostored LCL was rinsed with RPMI medium and suspended at 1.25×10^6/mL in X-VIVO15 medium. This was dispensed in 0.4 mL aliquots into polypropylene tubes, and 0.1 mL of a vaccine solution (0.1 mg/mL as peptide) was added to each tube. The cells were cultured for 24 hours at 37° C. in the presence of 5% CO2 and then used as antigen-presenting cells.
75 μL aliquots of anti-IFN-γ antibody for capture, diluted to an appropriate concentration, were dispensed into a 96-well plate (Millipore Corp., Multiscreen HA, MAHAS4510) specially designed for ELISPOT and left to stand overnight at 4° C. After discarding the liquid and rinsing with RPMI medium, 100 μL aliquots of RPMI medium containing 10% fetal bovine serum were dispensed and the plate was left to stand for not less than 1 hour at 37° C. The liquid was discarded, and the LCL prepared in (9) or (10) was adjusted to 5×10^4 cells/100 μL/well and added to each well. The cryostored CD8^+ T cell clones were thawed, rinsed, adjusted to 5×10^5/mL with RPMI medium, and thereafter added in 0.1 mL aliquots to each well. After culturing for 24 hours at 37° C. in the presence of 5% CO2, the liquid was discarded and the plate was rinsed well with phosphate buffered saline containing 0.05% Tween 20 (PBS-T). A biotin-labeled IFN-γ antibody for detection was diluted to an appropriate concentration and dispensed in 0.1 mL aliquots into each well. After letting stand overnight at 4° C., the plate was rinsed well with PBS-T, and an alkaline phosphatase-labeled streptavidin diluted to an appropriate concentration was added in 0.1 mL aliquots. After incubating for 1 hour at room temperature, the plate was rinsed well with PBS-T. A coloring solution was added in 0.1 mL aliquots and allowed to react for 5 minutes to 30 minutes at room temperature. When the formation of spots was observed, the reaction was stopped by rinsing with water.

[3] = FIG. 4, MEN, ENM, NME epitope orders, interepitope sequence fixed at Y6
[4] = FIG. 3, NME antigens (different epitope order) complexed with CHP, CpG oligo DNA

Sequence	activation of 1G4 cells [2]	other results
QYIHSANVLYYYYYYRGPESRLLYYYYYYSNPARYEFL (Long chain peptide antigen, containing three types of mouse CD8+ T cell epitope sequences (MA p265, NY p81, and mERK2 9m)) [ENM(Y6)]	–	induction of specific CD8+ T cells corresponding to all three types of epitopes [1, 3]: clearly induced
RGPESRLLGGGGGGSNPARYEFLGGGGGGQYIHSANVL (Long chain peptide antigen, containing three types of mouse CD8+ T cell epitope sequences (MA p265, NY p81, and mERK2 9m)) [NME(G6)]	–	induction of specific CD8+ T cells corresponding to all three types of epitopes [1, 4]: not observed for one or two types of epitopes among the three types of epitopes
RGPESRLLPPPPPPSNPARYEFLPPPPPPQYIHSANVL (Long chain peptide antigen, containing three types of mouse CD8+ T cell epitope sequences (MA p265, NY p81, and mERK2 9m)) [NME(P6)]	–	induction of specific CD8+ T cells corresponding to all three types of epitopes [1, 4]: not observed for one or two types of epitopes among the three types of epitopes
RGPESRLLYYYYYYSNPARYEFLYYYYYYQYIHSANVL (Long chain peptide antigen, containing three types of mouse CD8+ T cell epitope sequences (MA p265, NY p81, and mERK2 9m)) [NME(Y6)]	–	induction of specific CD8+ T cells corresponding to all three types of epitopes [1, 4]: clearly induced; induction of specific CD8+ T cells corresponding to all three types of epitopes [1, 3]: clearly induced
SLLMWITQCAAAAAANYKRCFPVIAAAAAACMTWNQMNL (Long chain peptide antigen, containing three types of human CD8+ T cell recognition epitope sequences (NY p157, MA4 p143, and WT1 p235)) [NMW(A6)]	clearly observed	–
SLLMWITQCGGGGGGNYKRCFPVIGGGGGGCMTWNQMNL (Long chain peptide antigen, containing three types of human CD8+ T cell recognition epitope sequences (NY p157, MA4 p143, and WT1 p235)) [NMW(G6)]	not clearly confirmed	–
SLLMWITQCNNNNNNNYKRCFPVINNNNNNCMTWNQML (SLLMWITQCNNNNNNNYKRCFPVINNNNNNCMTWNQMNL; Long chain peptide antigen, containing three types of human CD8+ T cell recognition epitope sequences (NY p157, MA4 p143, and WT1 p235)) [NMW(N6)]	clearly observed	–
SLLMWITQCPPPPPPNYKRCFPVIPPPPPPCMTWNQMNL (Long chain peptide antigen, containing three types of human CD8+ T cell recognition epitope sequences (NY p157, MA4 p143, and WT1 p235)) [NMW(P6)]	not clearly confirmed	–
SLLMWITQCQQQQQQNYKRCFPVIQQQQQQCMTWNQMNL (Long chain peptide antigen, containing three types of human CD8+ T cell recognition epitope sequences (NY p157, MA4 p143, and WT1 p235)) [NMW(Q6)]	clearly observed	–
SLLMWITQCSSSSSSNYKRCFPVISSSSSSCMTWNQMNL (Long chain peptide antigen, containing three types of human CD8+ T cell recognition epitope sequences (NY p157, MA4 p143, and WT1 p235)) [NMW(S6)]	clearly observed	–
SLLMWITQCYYYYYYNYKRCFPVIYYYYYYCMTWNQMNL (Long chain peptide antigen, containing three types of human CD8+ T cell recognition epitope sequences (NY p157, MA4 p143, and WT1 p235)) [NMW(Y6)]	clearly confirmed	–
SNPARYEFLTTTTTTQYIHSANVLTTTTTTRGPESRLL (Long chain peptide antigen, containing three types of mouse CD8+ T cell epitope sequences (MA p265, NY p81, and mERK2 9m)) [MEN(T6)]	–	induction of specific CD8+ T cells corresponding to all three types of epitopes ([1]; FIG. 1, MEN antigens complexed with CHP, subcutaneous, CpG oligo DNA adjuvant, spleen cells one week after final administration): clearly induced
